# What was measured:
# Format in all cases: cell-based
# rat hepatoma cells [1] = assay: TBARS assay of ROS in cell lysates of rat hepatoma cells; conditions: fatty acid alone
# Protocol: FIG. 13 illustrates that either an iron chelator (DFX) or lipid antioxidants block DHA-stimulated apoB degradation and reactive oxygen species (ROS) production. Rat hepatoma cells were plated in culture wells and pre-incubated in media containing either DHA or DHA with one of the indicated compounds. Radiolabeled methionine/cysteine was added to the culture media for 15 minutes, after which time, the culture media were replaced by fresh media identical in composition except that radiolabeled methionine/cysteine were replaced by unlabeled methionone/cysteine. The recovery of labeled apoB100 ([^35S]-apoB100) from the media and cell lysate was determined at the indicated time points (with time 0 being the point when the fresh media were applied to the cells) by immunoprecipitating apoB species with a rabbit polyclonal antibody to rat apoB, resuspending the immunoprecipitates, combining aliquots from cell lysate and media samples from each well, resolving the protein contents of the combined immunoprecipitates by SDS-polyacrylamide gel electrophoresis (SDS-PAGE), and exposing the resultant gels to X-ray film in order to visualize the labeled apoB bands. In panel A are shown representative signals for radiolabeled apoB100 in each of the treatment conditions. […] For each treatment, there were at least 2 wells/treatment for each time point and the entire experiment repeated. The signal intensities of the apoB100 bands were quantified by densitometry and the mean relative recoveries (the % of the 15 minute, or initial, value still remaining at 120 minutes) ±SEM are shown in panel B. Note that the visual impressions observable in panel A are confirmed by the quantitative analysis; i.e., there is a substantial increase in labeled apoB100 recovery with any of the co-treatments. In panel C, the ROS content of the cell lysates at the end of the experiment was measured by the standard TBARS assay (Stocks et al., 1974, Clin Sci Mol Med 47,215-222). Note that compared to control (BSA), DHA induced a large increase in TBARS, as expected because of its high content on unsaturated bonds. […] FIG. 15 illustrates that AA stimulates apoB100 degradation and increases ROS. […] Note in the upper panel that the combined recovery (from two separate wells/time point) of radiolabeled apoB100 decreased from 15 to 120 minutes, indicating significant apoB100 degradation had occurred in the presence of AA. […] In addition to being a source of ROS, AA can also be converted by cyclooxygenase (COX) to bioactive prostaglandin compounds. We therefore repeated the experiment with AA but with co-treatment by the COX inhibitor aspirin.
# rat hepatoma cells [2] = assay: Pulse-chase recovery of [35S]-apoB100 (apoB100 degradation) in rat hepatoma cells; conditions: for effect on DHA-stimulated apoB100 degradation: rat hepatoma cells or primary hepatocytes, co-treatment with DHA/BSA
# Protocol: FIG. 13 illustrates that either an iron chelator (DFX) or lipid antioxidants block DHA-stimulated apoB degradation and reactive oxygen species (ROS) production. Rat hepatoma cells were plated in culture wells and pre-incubated in media containing either DHA or DHA with one of the indicated compounds. Radiolabeled methionine/cysteine was added to the culture media for 15 minutes, after which time, the culture media were replaced by fresh media identical in composition except that radiolabeled methionine/cysteine were replaced by unlabeled methionone/cysteine. The recovery of labeled apoB100 ([^35S]-apoB100) from the media and cell lysate was determined at the indicated time points (with time 0 being the point when the fresh media were applied to the cells) by immunoprecipitating apoB species with a rabbit polyclonal antibody to rat apoB, resuspending the immunoprecipitates, combining aliquots from cell lysate and media samples from each well, resolving the protein contents of the combined immunoprecipitates by SDS-polyacrylamide gel electrophoresis (SDS-PAGE), and exposing the resultant gels to X-ray film in order to visualize the labeled apoB bands. In panel A are shown representative signals for radiolabeled apoB100 in each of the treatment conditions. […] For each treatment, there were at least 2 wells/treatment for each time point and the entire experiment repeated. The signal intensities of the apoB100 bands were quantified by densitometry and the mean relative recoveries (the % of the 15 minute, or initial, value still remaining at 120 minutes) ±SEM are shown in panel B. Note that the visual impressions observable in panel A are confirmed by the quantitative analysis; i.e., there is a substantial increase in labeled apoB100 recovery with any of the co-treatments. In panel C, the ROS content of the cell lysates at the end of the experiment was measured by the standard TBARS assay (Stocks et al., 1974, Clin Sci Mol Med 47,215-222). Note that compared to control (BSA), DHA induced a large increase in TBARS, as expected because of its high content on unsaturated bonds.
# FIG. 14 illustrates that DHA, but not saturated MA, induces apoB100 degradation in rat hepatoma cells. An experiment similar to the one described in FIG. 13 was performed, with the following changes: A) The immunoprecipitates from cell lysate and media samples were not combined, but separately analyzed. B) In addition to the 15 and 120 minute time points, apoB recovery was determined at 30 minutes. C) In addition to DHA, the effects of the fatty acid myristic (MA) were also tested because it has no unsaturated bonds and should not give rise to ROS.
# FIG. 15 illustrates that AA stimulates apoB100 degradation and increases ROS. […] Note in the upper panel that the combined recovery (from two separate wells/time point) of radiolabeled apoB100 decreased from 15 to 120 minutes, indicating significant apoB100 degradation had occurred in the presence of AA. […] In addition to being a source of ROS, AA can also be converted by cyclooxygenase (COX) to bioactive prostaglandin compounds. We therefore repeated the experiment with AA but with co-treatment by the COX inhibitor aspirin.
# To further explore the underlying mechanisms, rat hepatoma cells or primary hepatocytes were incubated with the Ω-3 fatty acid DHA complexed to BSA, while blocking candidate cellular mediators. […] There was, however, strong evidence against a role for calcium. Chelation of intracellular Ca^++ with BAPTA-AM, pharmacologic blockage of Ca^++ channels, depletion of the ER-calcium pool, and increasing Ca++ influx with an ionophore each had no effect. Because EGTA also chelates Fe^+++, and DHA is subject to Fe^+++-dependent peroxidation, the role of this lipid modification was examined. As shown in FIG. 13A and 13B, Desferroxamine (DFX), a chelator of Fe^+++, the antioxidant vitamin E (Vit E), and the synthetic antioxidant BHT, each inhibited DHA-stimulated apoB100 degradation by ˜60%.
# rat primary hepatocytes = assay: Secretion of newly synthesized ([35S]methionine-labeled) VLDL-apoproteins by rat primary hepatocytes incubated with fatty acid/BSA complexes; conditions: fatty acid/BSA complexes (0.8 mM FA), VLDL fraction
# Protocol: Cells were plated at a density of 2×10^6 cells/ml on 60-mm culture dishes (previously coated with poly-D-lysine) in modified M199 medium (M199, 1% fetal bovine serum [FBS], 1 mM nicotinamide, 0.1 nM insulin, 3 mg/ml choline, 1.1% L-glutamine, 1% BSA). After a four-hour attachment period, the medium was changed (modified M199 identical to the above except BSA was omitted and the concentration of FBS was raised to 10%). The next morning, cells were washed in serum-free medium three times, the experimental media added, and the cells incubated at 37° C. for 4-6 hours. The experimental medium consisted of serum-free RPMI containing the appropriate isotopes (see below) and fatty acids (FA) present at a final concentration of 0.8 mM complexed to BSA (FA:BSA molar ratio=5:1). The fatty acids used were oleic (OA), EPA, and DHA. Control medium was identical, except that BSA (0.16 mM) without fatty acids was present. For metabolic labeling of proteins, [^35S]methionine (70 uCi/ml) was included in the experimental media.
# Following the 4-6 hour incubation period, the cell monolayer was washed, then solubilized in 0.1 M NaOH, and the cell protein determined by the Lowry method (Lowry, O. H., Rosebrough, N. J., Farr, A. L., and Randall, R. J. (1951) J Biol Chem 193, 265-75). Each 60 mm dish contained approximately 1-1.5 mg of cell protein. The secreted apoproteins were isolated from the medium either by ultracentrifugation or immunoprecipitation. To isolate the d<1.006 (VLDL) and 1.006<d<1.063 (IDL and LDL) g/ml density classes by centrifugation, sequential 20 hour runs at 48,000 rpm in a 50 Ti Beckman rotor at 4° C. were performed. After the first run at d=1.006, the upper VLDL layer was harvested and the density of the infranatant adjusted to 1.066 g/ml with solid KBr. After being overlaid with a KBr solution of density 1.063, the adjusted infranatant was re-centrifuged as before to isolate the IDL and LDL fractions. In some experiments, the HDL fraction (1.063<d<1.21) was isolated by sequential density centrifugation. Lipoprotein fractions were then dialyzed against 0.9% NaCl containing 10 mM unlabeled methionine, 0.2 mM PMSF, and 2 mM EDTA. Dialyzed lipoproteins were delipidated using 9 volumes of 100% isopropanol. Apoproteins were then collected by centrifugation in a Sorval HB-4 rotor at 10,000 rpm and 4° C. for 20 min, and dissolved in buffer (0.01 M phosphate, pH 7,1 % SDS, 10% glycerol), in preparation for electrophoresis.
# To immunoprecipitate apoB or apoE from unfractionated conditioned medium, monospecific rabbit antiserum to rat apoB or apoE was used. Briefly, an aliquot of the medium was mixed with an equal volume of diluted antiserum (1:100 in PBS and 1% BSA) and incubated overnight at 4° C. Staph A was added in the form of immunoprecipitin, and the resultant precipitate containing the immune complexes was washed extensively, the staph A cells removed, and the isolated apoprotein dissolved in gel sample buffer (0.0625M tris/Cl, pH 6.8, 20% glycerol, 2% SDS). Electrophoretic separation of apoVLDL, apoIDL/LDL, and immunoprecipitates was accomplished using 3.5% acrylamide-18% glycerol gels as described (Maguire, G. F., Lee, M., and Connelly, P. W. (1989) J Lipid Res 30, 757-61). An aliquot of each sample was taken for scintillation counting, so that total radioactivity applied to each lane could be determined. Also, protein size standards were included in each gel.
# After electrophoresis, the gels were stained, fixed, soaked in Enhance fluor solution, and dried following protocols supplied by the manufacturer. Dried gels were then exposed to X-ray film at −70° C. and signals on the resulting fluorograms were typically quantified by densitometry or phosphorimaging. Using the total radioactivity applied to each lane of the gel and the relative signal intensity of each band in that lane, the radioactivity associated with each apoprotein species was calculated. […]
# Rat McA hepatoma cells = assay: Proteasome inhibition and apoB degradation in rat McA hepatoma cells
# Protocol: FIG. 8 illustrates that EPA stimulates apoB degradation even when proteasomes are inhibited. Panel A: Rat McA hepatoma cells were incubated at 37° C. for 4 hr in [^35S]methionine-containing medium supplemented with either BSA (C) or EPA/BSA complexes (EPA) in the absence (EPA) or presence (EPA+LAC) of the proteasome inhibitor, lactacystin. Samples of cell lysates and conditioned media were subjected to immunoprecipitation analysis with anti-apoB antiserum, followed by SDS-PAGE and fluorography. In three separate experiments, the effect of lactacystin on EPA-induced degradation averaged less than 20%. Panel B: Rat McA hepatoma cells were incubated at 37° C. for 4 hr in [^355]methionine-containing medium supplemented with either BSA (Control) or BSA and lactacystin (LAC). After immunoprecipitation/SDS-PAGE analysis of the cell lysate and media samples, the resulting fluorograms were analyzed by phosphorimager and the recovery of total (cell+medium) apoB100 was quantified. The results shown (mean total recovery relative to control, ±SE) are based on 8 independent determinations. * indicates P<0.001, LAC vs. control.
# To determine whether the proteasome mediated Ω-3 fatty acid-induced apoB degradation, rat hepatoma cells were incubated at 37° C. for 4 hr in [^35S]methionine-containing medium supplemented with either BSA or EPA/BSA complexes in the absence or presence of the proteasome inhibitor, lactacystin ([…]; purchased from the laboratory of Dr. E. J. Corey, Harvard University). Samples of cell lysates and conditioned media were subjected to immunoprecipitation analysis with anti-apoB antiserum, followed by SDS-PAGE and fluorography. To determine whether Ω-3 fatty acids targeted apoB to lysosomal degradation, a similar experiment was performed substituting ammonium chloride (40 mM) for lactacystin.
structure (smiles),measurement,setting,value
"CCCCC/C=C\C/C=C\C/C=C\C/C=C\CCCC(=O)O [AA, arachidonic acid]","reactive oxygen species (ROS), TBARS assay, fatty acid compared to BSA",rat hepatoma cells [1],increases
same,AA-induced apoB100 degradation with co-treatment by the COX inhibitor aspirin,rat hepatoma cells [2]; AA plus aspirin,still induced apoB100 degradation
same,apoB100 degradation induced by the fatty acid,"rat hepatoma cells [2]; rat hepatoma cells, 15 to 120 minutes chase",stimulates the degradation of apoB
CC(=O)OCOC(=O)CN(CC(=O)OCOC(C)=O)c1ccccc1OCCOc1ccccc1N(CC(=O)OCOC(C)=O)CC(=O)OCOC(C)=O [BAPTA-AM],effect on DHA-stimulated apoB100 degradation,rat hepatoma cells [2],no effect
O=C(O)CN(CC(=O)O)c1ccccc1OCCOc1ccccc1N(CC(=O)O)CC(=O)O [BAPTA],effect on DHA-stimulated apoB100 degradation,rat hepatoma cells [2],blocked
"Cc1cc(C(C)(C)C)c(O)c(C(C)(C)C)c1 [BHT, butylhydroxytoluene]",inhibition of DHA-stimulated apoB100 degradation,"rat hepatoma cells [2]; co-treatment with DHA, FIG. 13A and 13B",~60%
O=C(O)CN(CCOCCOCCN(CC(=O)O)CC(=O)O)CC(=O)O [EGTA],effect on DHA-stimulated apoB100 degradation,rat hepatoma cells [2],blocked
"CC/C=C\C/C=C\C/C=C\C/C=C\C/C=C\CCCC(=O)O [EPA, eicosapentaenoic acid]","secretion of newly synthesized VLDL-ApoB48, percentage of secretion observed with BSA alone",rat primary hepatocytes,45 ± 3 percentage
same,"secretion of newly synthesized VLDL-ApoB100, percentage of secretion observed with BSA alone",rat primary hepatocytes,25 ± 2 percentage
same,"secretion of newly synthesized VLDL-ApoE, percentage of secretion observed with BSA alone",rat primary hepatocytes,45 ± 1 percentage
"CCCCCCCCCCCCCC(=O)O [MA, myristic acid]","reactive oxygen species (ROS), TBARS assay, fatty acid compared to BSA",rat hepatoma cells [1],does not increase
CC(=O)Oc1ccccc1C(=O)O [aspirin],effect on DHA-stimulated apoB100 degradation,rat hepatoma cells [2],no effect
CC(=O)N[C@@H](CSC(=O)[C@]1([C@@H](O)C(C)C)NC(=O)[C@H](C)[C@@H]1O)C(=O)O [lactacystin],inhibition of EPA-induced apoB degradation,Rat McA hepatoma cells; FIG. 8 Panel A,little if any inhibition
same,apoB100 recovery in the absence of Ω-3 fatty acids,"Rat McA hepatoma cells; FIG. 8 Panel B, total (cell+medium), P<0.001 vs control",increased
same,effect of lactacystin on EPA-induced apoB degradation,"Rat McA hepatoma cells; average of three separate experiments, 4 hr",less than 20%
